Data published in ChEMBL document CHEMBL5247609, “Novel nitric oxide-releasing derivatives of pyranocarbazole as antitumor agents: Design, synthesis, biological evaluation, and nitric oxide release studies” (Eur J Med Chem, 2022).
Activity calls are given as the source filed them. No cut-off for these calls is given here.

How the values were obtained:
[1] = system: MDA-MB-231; test: Antitumor activity against human MDA-MB-231 cells xenografted in BALBC mouse assessed as inhibition of tumor growth at 150 mg/kg, IG administered every 3 days for 21 days relative to control; assay type: functional; settings: MDA-MB-231, po, 504 h, time 21 day, read-out: TGI
[2] = system: MX1; test: Induction of apoptosis in human MX1 cells assessed as late apoptotic cells measured at 5 uM after 48 hrs by FITC-Annexin-V and propidium iodide based flow cytometric analysis (reference value: 5.24%); assay type: functional
[3] = system: MDA-MB-231; test: Induction of morphological changes in human MDA-MB-231 cells assessed as decrease in cell size at 0.5 to 2 uM measured after 24 hrs by bright field inverted microscopic analysis; assay type: functional, cell-based; settings: dose 0.5-2 µM
[4] = system: MDA-MB-231; test: Antitumor activity against human MDA-MB-231 cells xenografted in BALBC mouse assessed as inhibition of tumor growth at 75 mg/kg, IG administered every 3 days for 21 days relative to control; assay type: functional; settings: MDA-MB-231, po, 504 h, time 21 day, read-out: TGI
[5] = system: MDA-MB-231; test: Antiproliferative activity against human MDA-MB-231 cells assessed as reduction in cell viability after 96 hrs by MTT assay; assay type: functional, cell-based; settings: MDA-MB-231, 96 h
[6] = system: NCI-H460; test: Antiproliferative activity against human H460 cells assessed as reduction in cell viability after 96 hrs by MTT assay; assay type: functional, cell-based; settings: NCI-H460, 96 h
[7] = system: MDA-MB-231; test: Induction of apoptosis in human MDA-MB-231 cells assessed as early apoptotic cells measured at 0.5 uM after 48 hrs by FITC-Annexin-V and propidium iodide based flow cytometric analysis (reference value: 2.71%); assay type: functional
[8] = system: MX1; test: Induction of morphological changes in human MX1 cells assessed as decrease in cell number at 0.5 to 2 uM measured after 24 hrs by bright field inverted microscopic analysis; assay type: functional, cell-based; settings: dose 0.5-2 µM
[9] = system: MDA-MB-231; test: Induction of apoptosis in human MDA-MB-231 cells assessed as viable cells measured at 5 uM after 48 hrs by FITC-Annexin-V and propidium iodide based flow cytometric analysis (reference value: 94.4% ); assay type: functional; settings: read-out: Activity
[10] = system: MDA-MB-231; test: Induction of apoptosis in human MDA-MB-231 cells assessed as downregulation of Bcl-2 by Western blotting analysis; assay type: functional, cell-based; settings: dose 0.5-2 µM
[11] = system: MDA-MB-231; test: Induction of apoptosis in human MDA-MB-231 cells assessed as late apoptotic cells measured at 2 uM after 48 hrs by FITC-Annexin-V and propidium iodide based flow cytometric analysis (reference value: 2.68%); assay type: functional
[12] = system: HeLa; test: Antiproliferative activity against human HeLa cells assessed as reduction in cell viability after 96 hrs by MTT assay; assay type: functional, cell-based
[13] = system: MX1; test: Induction of cell cycle arrest in human MX1 cells assessed as decrease in accumulation of cells at S phase at 0.5 to 2 uM measured after 24 hrs by propidium iodide staining based FACS calibur flow cytometeric analysis; assay type: functional; settings: dose 0.5-2 µM
[14] = system: MX1; test: Induction of apoptosis in human MX1 cells assessed as necrotic cells measured at 2 uM after 48 hrs by FITC-Annexin-V and propidium iodide based flow cytometric analysis (reference value: 0.055 %); assay type: functional
[15] = system: MX1; test: Induction of apoptosis in human MX1 cells assessed as necrotic cells measured at 1 uM after 48 hrs by FITC-Annexin-V and propidium iodide based flow cytometric analysis (reference value: 0.055 %); assay type: functional
[16] = system: MDA-MB-231; test: Induction of apoptosis in human MDA-MB-231 cells assessed as viable cells measured at 2 uM after 48 hrs by FITC-Annexin-V and propidium iodide based flow cytometric analysis (reference value: 94.4% ); assay type: functional; settings: read-out: Activity
[17] = Toxicity in BALBC mouse allografted with mouse EMT6 cells assessed as weight loss at 50 to 150 mg/kg, IG administered every 3 days for 21 days; assay type: organism-based; settings: in vivo, po, 504 h, dose 50-150 mg/kg, time 21 day
[18] = system: MDA-MB-231; test: Induction of apoptosis in human MDA-MB-231 cells assessed as necrotic cells measured at 2 uM after 48 hrs by FITC-Annexin-V and propidium iodide based flow cytometric analysis (reference value: 0.253 %); assay type: functional
[19] = system: MX1; test: Inhibition of PI3K/Akt signaling in human MX1 cells assessed as decrease in phosphorylated S6 expression incubated for 24 hrs by Western blotting analysis; assay type: cell-based; settings: dose 0.5-5 µM
[20] = system: MX1; test: Induction of cell cycle arrest in human MX-1 cells assessed as accumulation of cells at G0/G1 phase incubated for 24 hrs by propidium iodide staining based FACS calibur flow cytometeric analysis; assay type: functional; settings: dose 0.5-2 µM
[21] = system: MX1; test: Induction of apoptosis in human MX1 cells assessed as early apoptotic cells measured at 0.5 uM after 48 hrs by FITC-Annexin-V and propidium iodide based flow cytometric analysis (reference value: 6.30%); assay type: functional
[22] = system: MDA-MB-231; test: Inhibition of PI3K/Akt signaling in human MDA-MB-231 cells assessed as decrease in phosphorylated Akt expression level incubated for 24 hrs by Western blotting analysis; assay type: cell-based; settings: dose 0.5-5 µM
[23] = system: MDA-MB-231; test: Induction of apoptosis in human MDA-MB-231 cells assessed as viable cells measured at 0.5 uM after 48 hrs by FITC-Annexin-V and propidium iodide based flow cytometric analysis (reference value: 94.4% ); assay type: functional; settings: read-out: Activity
[24] = system: MX1; test: Induction of apoptosis in human MX1 cells assessed as necrotic cells measured at 0.5 uM after 48 hrs by FITC-Annexin-V and propidium iodide based flow cytometric analysis (reference value: 0.055 %); assay type: functional
[25] = system: MX1; test: Induction of apoptosis in human MX1 cells assessed as viable cells measured at 0.5 uM after 48 hrs by FITC-Annexin-V and propidium iodide based flow cytometric analysis (reference value: 88.4%); assay type: functional; settings: read-out: Activity
[26] = system: MX1; test: Induction of morphological changes in human MX1 cells at 0.5 to 2 uM measured after 24 hrs by bright field inverted microscopic analysis; assay type: functional, cell-based; settings: dose 0.5-2 µM
[27] = system: MX1; test: Induction of apoptosis in human MX1 cells assessed as viable cells measured at 5 uM after 48 hrs by FITC-Annexin-V and propidium iodide based flow cytometric analysis (reference value: 88.4%); assay type: functional; settings: read-out: Activity
[28] = Toxicity in BALBC mouse xenografted with human MDA-MB-231 cells assessed as weight loss at 50 to 150 mg/kg, IG administered every 3 days for 21 days; assay type: organism-based; settings: in vivo, po, 504 h, dose 50-150 mg/kg, time 21 day
[29] = system: MX1; test: Induction of cell cycle arrest in human MX1 cells assessed as increase in CDK6 expression at 0.5 to 2 uM by Western blotting analysis; assay type: functional, cell-based; settings: dose 0.5-2 µM, time 24.0 hrs
[30] = system: MDA-MB-231; test: Induction of apoptosis in human MDA-MB-231 cells assessed as early apoptotic cells measured at 1 uM after 48 hrs by FITC-Annexin-V and propidium iodide based flow cytometric analysis (reference value: 2.71%); assay type: functional
[31] = system: MX1; test: Induction of cell cycle arrest in human MX1 cells assessed as accumulation of cells at G0/G1 phase at 0.5 to 2 uM measured after 24 hrs by propidium iodide staining based FACS calibur flow cytometeric analysis (reference value: 39.2%); assay type: functional; settings: dose 0.5-2 µM
[32] = system: MX1; test: Induction of apoptosis in human MX1 cells assessed as viable cells measured at 1 uM after 48 hrs by FITC-Annexin-V and propidium iodide based flow cytometric analysis (reference value: 88.4%); assay type: functional; settings: read-out: Activity
[33] = system: MX1; test: Induction of apoptosis in human MX1 cells assessed as upregulation of Bax by Western blotting analysis; assay type: functional, cell-based; settings: dose 0.5-2 µM
[34] = system: MX1; test: Inhibition of PI3K/Akt signaling in human MX1 cells assessed as decrease in total Akt expression level incubated for 24 hrs by Western blotting analysis; assay type: cell-based

CC1(C)C=Cc2c(c(/C=C/C(=O)NCCOc3no[n+]([O-])c3S(=O)(=O)c3ccccc3)cc3c2[nH]c2ccc(C(C)(C)C)cc23)O1
inhibition in vivo at 150 mg/kg [1]: 53.6% | Activity [2]: 14.5% | Activity [3]: Active | inhibition in vivo at 75 mg/kg [4]: 30% | IC50 [5]: 50 nM | IC50 [6]: 780 nM | Activity [7]: 3.12% | Activity [8]: Active | viability at 5 µM [9]: 47.1% | Activity [10]: Dose-Dependent Effect | Activity [11]: 12.8% | IC50 [12]: 140 nM | Activity [13]: Active | Activity [14]: 0.043% | Activity [15]: 0.193% | viability at 2 µM [16]: 75.9% | Activity [17]: Non-Toxic | Activity [18]: 0.535% | inhibition [19]: Dose-Dependent Effect | Activity [20]: Dose-Dependent Effect | Activity [21]: 39.8% | inhibition [22]: Dose-Dependent Effect | viability at 0.5 µM [23]: 92.4% | Activity [24]: 0.202% | viability at 0.5 µM [25]: 54.8% | Activity [26]: Active | viability at 5 µM [27]: 27.5% | Activity [28]: Non-Toxic | Activity [29]: Active | Activity [30]: 3.76% | Activity [31]: 43.1% | viability at 1 µM [32]: 43.5% | Activity [33]: Dose-Dependent Effect | inhibition [34]: inactive
